Where two headings read alike, the source gives them in different places.
How the values were obtained:
[1] = system: Vaccinia Strain Western Reserve; assay: microbe, parasite or virus in culture; format: cell-based; details: Orthopoxvirus vaccinia, Vero C1008
[2] = system: HIV-1 Strain IIIB; assay: Cytoprotection assay for HIV; format: cell-based; details: Human immunodeficiency virus 1; HIV-1 IIIB, MT-4
Experimental: Activity against other viruses. A representative compound, Example 20, Compound F, was tested against a panel of other RNA and DNA viruses. Compound F was synthesized as described in the Experimental section. Experimental conditions for growing the cells and viruses are listed below. Unless otherwise indicated, cells and viruses were obtained from the American Type Culture Collection (ATCC, Rockville, Md.).
(§1) MT-4 cells ((Catalog #120) Human T-cell Leukemia) were obtained from the NIH AIDS Reference Reagent Program and were used in cytoprotection assays with HIV-1 Strain IIIB (Southern Research). They were grown in RPMI-1640 medium supplemented with 10% FBS.
Cytoprotection Assay for HIV:_MT-4 cells were sub-cultured one day prior to testing. Cells were plated in 96 well cell culture plates at a seeding density of 6×10^5 cells/ml (3×10^4 cells/well). […] Cytoprotection and compound cytotoxicity were assessed by XTT assay (Cat#11-465-015-001, Roche Diagnostics). The plates were read spectrophotometrically at 450/650 nm with a Molecular Devices SpectraMax M2 plate reader. The percent reduction in viral CPE was determined and reported as IC50, CC50 and a calculated TI. Samples were evaluated for antiviral efficacy and cytotoxicity with triplicate measurements using 9 concentrations at 2-fold dilutions. […]

[3] = system: RSV strain Long; assay: Cytoprotection assay, RSV; format: cell-based; details: human respiratory syncytial virus, Vero
[4] = Compound cytotoxicity in cytoprotection assay (MTS), MDBK; details: cow, MDBK cells
[5] = system: Yellow Fever Virus strain 17D; assay: microbe, parasite or virus in culture; format: cell-based; details: HeLa
[6] = system: Bovine Viral Diarrhea Virus (BVDV) strain NADL; assay: Cytoprotection assay, BVDV; format: cell-based; details: Bovine viral diarrhea virus isolates and strains, MDBK
[7] = system: HeLa cells; details: human
[8] = system: Poliovirus strain Chat; assay: microbe, parasite or virus in culture; format: cell-based, Poliovirus I; details: Enterovirus C, Vero
[9] = system: HCV replicon (Genotype 1b); assay: Luciferase genotype 1b replicon potency assay; details: Hepatitis C virus, GETYPE1B, read-out: IC50 μM, HCV genotype 1b luciferase replicon, Renilla luciferase reporter
[10] = system: West Nile virus strain NY-99; assay: Cytoprotection assay, West Nile virus; format: cell-based; details: West Nile Virus NY-99, Vero
[11] = Mouse PK: 2'-C-methylguanosine triphosphate levels in liver; details: 2'-C-methylguanosine triphosphate in mouse liver, 50 mg/kg PO
[12] = Protide stability in normal plasma, rat; format: in vitro ADME; details: 37° C.
Experimental: (§2) Selected nucleoside 5′-phosphoramidates were examined for stability in human, cynomolgous monkey, rat and mouse plasma at 37° C. at both 30 min and 90 min time points.
(§3) Protide Stability in Normal Plasma: Plasma samples were prepared for analysis as follows. 50 μl of each test sample were distributed a 96-well V-bottom plate. 200 μl of acetonitrile containing 10 ng/ml of an internal standard was added to each plasma sample. The precipitated samples were centrifuged at 2500 rpm, 4° C. for 20 minutes in a Sorvall RT6000S centrifuge (Thermo Scientific, Waltham Mass.) and 100 μl of supernatant from each sample was transferred into a 96 deep well plate followed by the addition of 100 μl H2O to each sample. Samples were covered, mixed well by vortexing and maintained at 2-8° C. before and during analysis. 15 μl of each test sample was analyzed for protide concentrations by liquid chromatography coupled to tandem mass spectrometry (LC-MS/MS). Liquid chromatography was performed with an Agilent 1100 Series HPLC system equipped with a Synergi 4 μm Polar-RP, 30×2.0 mm column (Phenomenex, Torrance, Calif.). The HPLC system was coupled to an API 4000 triple quadrupole mass spectrometer (Applied Biosystems, Framingham, Mass.). Mass spectrometry was performed in positive ion mode and data was analyzed using Analyst® v1.4.2 software (Applied Biosystems, Framingham, Mass.). Data was presented as the percentage of compound recovered as compared to the 0 time point control.

[13] = system: Influenza B strain Lee; assay: Cytoprotection assay, Influenza B; format: cell-based; details: Influenza B virus, MDCK
[14] = Protide stability in normal plasma, human; format: in vitro ADME; details: 37° C.
Experimental: as §2, §3

[15] = system: Influenza A strain Hong Kong; assay: Cytoprotection assay, Influenza A; format: cell-based; details: Influenza A virus, MDCK
[16] = system: HSV-1 strain HF; assay: Cytoprotection assay, HSV-1; format: cell-based; details: Human alphaherpesvirus 1, Vero
[17] = system: Adenovirus Type 1; assay: Cytoprotection assay, Adenovirus; format: cell-based; details: Adenovirus Type I, HeLa
[18] = Compound cytotoxicity in HIV cytoprotection assay (XTT); format: cell-based; details: human, MT-4 cells; MT-4, HIV-1 assay
Experimental: as §1
Cytoprotection Assay for HIV:_MT-4 cells were sub-cultured one day prior to testing. Cells were plated in 96 well cell culture plates at a seeding density of 6×10^5 cells/ml (3×10^4 cells/well). […] Virus and cells were mixed in the presence of serial dilutions of test compound and incubated for 5 days at 37° C., 5% CO2. Each assay plate contained cell control wells (cells only), virus control wells (cells plus virus), compound toxicity control wells (cells plus compound only) as well as experimental wells (compound plus cells plus virus). Cytoprotection and compound cytotoxicity were assessed by XTT assay (Cat#11-465-015-001, Roche Diagnostics). The plates were read spectrophotometrically at 450/650 nm with a Molecular Devices SpectraMax M2 plate reader. The percent reduction in viral CPE was determined and reported as IC50, CC50 and a calculated TI. Samples were evaluated for antiviral efficacy and cytotoxicity with triplicate measurements using 9 concentrations at 2-fold dilutions. Each assay included Raltegravir (MK0518) as an antiviral positive control compound.

[19] = system: Vero cells
[20] = Protide stability in normal plasma, mouse; format: in vitro ADME; details: 37° C.
Experimental: as §2, §3

COc1nc(N)nc2c1ncn2C1O[C@H](COP(=O)(N[C@@H](C)C(=O)OCC(C)(C)C)Oc2cccc3ccccc23)[C@@H](O)[C@@]1(C)O (some centres unmarked) [Example 20]
EC50 [1]: 4.52 µM | EC50 [2]: > 10 µM | EC50 [3]: > 10 µM | CC50 at 7 days [4]: > 10 µM | EC50 [5]: 0.418 µM | EC50 [6]: 0.748 µM | CC50 [7]: > 10 µM | EC50 [8]: 4.71 µM | IC50 [9]: 0.001 µM | EC50 [10]: 1.69 µM | AUC0-6 [11]: 31940 ng·h/g | AUC0-24 [11]: 59353 ng·h/g | % Compound Remaining Compared to %100 Acetonitrile Control ([12]; 30 min): 0% | % Compound Remaining Compared to %100 Acetonitrile Control ([12]; 1.5 h): 0% | EC50 [13]: > 10 µM | % Compound Remaining Compared to %100 Acetonitrile Control ([14]; 30 min): 94.0% | % Compound Remaining Compared to %100 Acetonitrile Control ([14]; 1.5 h): 101.5% | EC50 [15]: > 10 µM | EC50 [16]: > 10 µM | EC50 [17]: > 10 µM | CC50 at 5 days [18]: 11 µM | CC50 ([19]; African green monkey): > 10 µM | CC50 ([19]; Vero, HSV-1 assay): > 10 µM | CC50 ([19]; Vero, RSV assay): > 10 µM | % Compound Remaining Compared to %100 Acetonitrile Control ([20]; 30 min): 0% | % Compound Remaining Compared to %100 Acetonitrile Control ([20]; 1.5 h): 0%

Reference: US8759318B2, “Phosphoramidate derivatives of guanosine nucleoside compounds for treatment of viral infections” (Inhibitex, Inc., priority 2009, dated 2014)
